Results from patent US20240140949A1, “ANTI-CANCER PHARMACEUTICAL COMPOSITION FOR TARGETING HEAT SHOCK PROTEIN 70, CONTAINING INDOLOQUINAZOLIDINE ALKALOID” (SEOUL NATIONAL UNIVERSITY R & DB FOUNDATION, priority 2021, published 2024).

Columns and labels:
H1299 lung cancer cells = test: Cell viability (MTT assay) in H1299 cells; format: cell-based, human; conditions: 0.5-10 μM, 3 days, MTT (FIG. 9-12)
Text: (§1) Human lung cancer cell lines (H1299, H460, A549, H226B, and PC9), breast cancer cell line (MDA-MB-231), liver cancer cell line (Hep3B), kidney cancer cell line (786-0), prostate cancer cell lines (DU145 and PC-3), and mouse lung cancer cell line (Lewis Lung Carcinoma, LLC) were purchased from ATCC (American Type Culture Collection) or obtained from Dr. John V. Heymach of MD Anderson Cancer Center, USA. The human head and neck cancer cell line (UMSCC38) was obtained from Dr. Jeffrey N. Myers (MD Anderson Cancer Center, USA). Human colon cancer cell lines (HCT116 and HT-29) and glioblastoma cell line (U87MG) were obtained from Professor Sang Kook Lee (Seoul National University College of Pharmacy). The human kidney cancer cell line (Caki-1), and gastric cancer cell line (SNU-638) were purchased from the Korean Cell Line Bank. The chemotherapy-resistant cells [paclitaxel-resistant H460 cells (H460/PcR), paclitaxel-resistant H226B cells (H226B/PcR), cisplatin-resistant H1299 cells (H1299/CsR), pemetrexed-resistant H1299 cells (H1299/PmR)] and molecularly targeted anticancer therapy-resistant cells [erlotinib-resistant PC9 cells (PC9/ER)] were constructed by treating the respective anti-cancer drugs for more than three months. H1299, H460, H226B, PC9, Hep3B, 786-0, DU145, PC-3, HCT116, HT-29, SNU-638, chemotherapeutic resistant cells, and molecularly targeted anticancer therapy-resistant cells were cultured in RPMI 1640 media containing 10% fetal bovine serum (FBS) and antibiotics at 37° C. under 5% CO2 conditions, while MDA-MB-231, UMSCC38, U87MG, Caki-1 were cultured in DMEM media containing 10% FBS and antibiotics at 37° C. under 5% CO2 conditions. Cells were passaged 1-2 times per week.
(§2) The cancer cell lines were seeded in a 96-well plate at a density of 2×10^3 cells per well and cultured for 24 hours to allow the cells to attach. The cells were then treated with diluted drugs in media for 3 days and cell viability was assessed using MTT assay or crystal violet (CB) assay. For the MTT assay, MTT solution dissolved in PBS was added to achieve a final concentration of 500 μg/mL and incubated for 2-4 hours, after which the medium was removed and the formed formazan was dissolved in 100% DMSO, followed by measuring the absorbance at 570 nm. For the CB assay, the cultured cells were fixed with 100% methanol, stained with a 0.025% crystal violet solution, dissolved in 1% SDS solution, and the absorbance was measured at 570 nm. Cell viability was calculated as the percentage of absorbance change in drug-treated group compared to vehicle (DMSO) treated control group.

cancer cell = test: Cancer cell survival inhibitory activity (crystal violet assay); format: cell-based; conditions: crystal violet assay (FIG. 19)
Procedure: as §2

lung cancer cells = test: Anchorage-independent (soft agar) colony formation; format: cell-based; conditions: soft agar (FIG. 20)
Procedure: Before the experiment, a 1% agar solution made with low-melting agar was placed in a 24-well plate and hardened at room temperature to create a bottom agar. The cells were diluted with medium to seed 2×10^3 cells per well in a 24-well plate. Then, it was mixed with a 1% agar solution to create a final 0.4% agar solution, which was then solidified at room temperature in the plate containing the bottom agar. Medium containing the drug was added on top of the cells mixed in the agar and cultured for 1-3 weeks at 37° C. in a 5% CO2 condition, after which the formed colonies were stained with an MTT solution of 250-500 μg/mL and counted. The colony formation inhibitory effect of the drug was calculated by expressing the change in colony numbers in the drug-treated group compared to the vehicle (DMSO) treated control group as a percentage.

lung cancer cell = test: Cancer cell survival inhibitory activity (MTT assay) of EV501 to EV509; format: cell-based; conditions: 0.5 μM (lowest concentration), MTT assay (FIG. 18)
Procedure: as §2

[1] = test system: Hsp70 protein and Hsp70/Hsp90 client proteins (Akt, Src, and MEK); test: Western blot of Hsp70 and client proteins in lung cancer cells; format: cell-based, human; conditions: for expression of Hsp70 protein and Hsp70/Hsp90 client proteins (Akt, Src, and MEK): H1299 cells, up to 250 nM, 2 days (FIG. 17)
Text: as §1
The cells treated with the drug were treated with RIPA lysis buffer [50 mM Tris-HCl (pH 7.4), 150 mM NaCl, 1 mM EDTA, 0.25% sodium deoxycholate, 1% Triton X-100, 100 mM NaF, 5 mM Na3VO4, 1 mM PMSF, 1 μg/mL aprotinin, 1 μg/mL leupeptin, and 1 μg/mL pepstatin], followed by incubation on ice for 10 minutes and centrifugation at 13,000 rpm for 15 minutes to extract proteins. The proteins were quantified by BCA assay and equal amounts of proteins were separated by 8-10% SDS-PAGE. The separated proteins were transferred to a PVDF membrane, and the areas of the membrane not transferred with protein were blocked by incubating the membrane in 5% skim milk solution or 3% BSA solution diluted in TBST at room temperature for 1 hour. The membrane was then incubated in a primary antibody solution diluted 1:1,000 in 3% BSA at 4° C. for more than 12 hours. The primary antibody used was either anti-Hsp70 or anti-actin, with the anti-Hsp70 antibody obtained from Enzo Life Science and the actin antibody obtained from Santa Cruz Biotechnology. After incubation, the membrane was washed for 1 hour while changing TBST several times, and then incubated for 1 hour at room temperature with a secondary antibody (GeneTex) diluted 1:5,000 in 5% skim milk solution. After incubation, the membrane was washed for 1 hour while changing TBST several times, and then treated with an enhanced chemiluminescence (ECL) solution. The expression of Hsp70 or Actin protein was detected using LAS4000.

[2] = test system: various lung cancer cells and chemotherapeutic drug-resistant lung cancer cell lines; test: Anchorage-dependent colony formation in lung cancer and drug-resistant lung cancer cell lines; format: cell-based, human; conditions: 0.5 μM (FIG. 14, 16)
Text: Human lung cancer cell lines (H1299, H460, A549, H226B, and PC9), breast cancer cell line (MDA-MB-231), liver cancer cell line (Hep3B), kidney cancer cell line (786-0), prostate cancer cell lines (DU145 and PC-3), and mouse lung cancer cell line (Lewis Lung Carcinoma, LLC) were purchased from ATCC (American Type Culture Collection) or obtained from Dr. John V. Heymach of MD Anderson Cancer Center, USA. The human head and neck cancer cell line (UMSCC38) was obtained from Dr. Jeffrey N. Myers (MD Anderson Cancer Center, USA). Human colon cancer cell lines (HCT116 and HT-29) and glioblastoma cell line (U87MG) were obtained from Professor Sang Kook Lee (Seoul National University College of Pharmacy). The human kidney cancer cell line (Caki-1), and gastric cancer cell line (SNU-638) were purchased from the Korean Cell Line Bank. […]
Cancer cell lines were seeded in a 24-well or 6-well plate at 100-250 cells per well and allowed to attach, followed by treatment with drugs diluted in media and cultured for 2-3 weeks. Formed colonies were stained with crystal violet and counted. The drug's colony formation inhibitory effect was calculated as the percentage of colony number change in the drug-treated group compared to the vehicle (DMSO)-treated control group.

[3] = test system: various lung cancer cell lines and chemotherapeutic agent-resistant lung cancer cell lines; test: Cell viability in lung cancer and chemotherapeutic drug-resistant lung cancer cell lines; format: cell-based, human; conditions: lung cancer and chemotherapeutic agent-resistant lung cancer cell lines (FIG. 13, 15)
Text: Human lung cancer cell lines (H1299, H460, A549, H226B, and PC9), breast cancer cell line (MDA-MB-231), liver cancer cell line (Hep3B), kidney cancer cell line (786-0), prostate cancer cell lines (DU145 and PC-3), and mouse lung cancer cell line (Lewis Lung Carcinoma, LLC) were purchased from ATCC (American Type Culture Collection) or obtained from Dr. John V. Heymach of MD Anderson Cancer Center, USA. The human head and neck cancer cell line (UMSCC38) was obtained from Dr. Jeffrey N. Myers (MD Anderson Cancer Center, USA). […]
as §2, with “Cell viability was calculated as the percentage of absorbance change in drug-treated group compared to vehicle (DMSO) treated control group.” left out

Compound: Cc1ccc2c(c1)C(=O)N1CCc3c([nH]c4ccccc34)C1N2C (stereo not drawn) [EV307]
- lung cancer cell death (cell viability) (H1299 lung cancer cells): excellent effects

Compound: C=C(C)CN1c2ccccc2C(=O)N2CCc3c([nH]c4ccc(O)cc34)C21 (stereo not drawn) [EV509]
- cancer cell survival inhibitory activity (cancer cell): as excellent as EV507
- anchorage-independent colony formation (lung cancer cells): effectively inhibited
- melting point: 211 to 213 °C
- inhibition at 0.5 µM (lung cancer cell): > 65%

Compound: CN1c2ccc(F)cc2C(=O)N2CCc3c([nH]c4ccccc34)C21 (stereo not drawn) [EV301]
- lung cancer cell death (cell viability) (H1299 lung cancer cells): excellent effects

Compound: C=C(C)CN1c2ccccc2C(=O)N2CCc3c([nH]c4ccc([N+](=O)[O-])cc34)C21 (stereo not drawn) [EV502]
- melting point: 261 to 262 °C
- inhibition at 0.5 µM (lung cancer cell): > 50%

Compound: Cc1ccc2[nH]c3c(c2c1)CCN1C(=O)c2ccccc2N(C)C31 (stereo not drawn) [EV406]
- lung cancer cell death (cell viability) (H1299 lung cancer cells): excellent effects

Compound: C=CCN1c2ccccc2C(=O)N2CCc3c([nH]c4ccc([N+](=O)[O-])cc34)C21 (stereo not drawn) [EV501]
- expression of Hsp70 and Src and Akt (client proteins of Hsp70/Hsp90) ([1]; Western blot (FIG. 21)): decrease
- cancer cell survival inhibitory activity (cancer cell): as excellent as EV507
- anchorage-independent colony formation (lung cancer cells): effectively inhibited
- melting point: 186 to 188 °C
- inhibition at 0.5 µM (lung cancer cell): > 65%

Compound: CN1c2ccccc2C(=O)N2CCc3c([nH]c4ccc(Cl)cc34)C21 (stereo not drawn) [EV407]
- lung cancer cell death (cell viability) (H1299 lung cancer cells): excellent effects

Compound: COc1ccc2c(c1)C(=O)N1CCc3c([nH]c4ccccc34)C1N2C (stereo not drawn) [EV302]
- lung cancer cell death (cell viability) (H1299 lung cancer cells): excellent effects

Compound: CC(C)=CCN1c2ccccc2C(=O)N2CCc3c([nH]c4ccccc34)C21 (stereo not drawn) [EV217]
- lung cancer cell death (cell viability) (H1299 lung cancer cells): excellent effects

Compound: C=C(C)CN1c2ccccc2C(=O)N2CCc3c([nH]c4ccccc34)C21 (stereo not drawn) [EV218, 14N-(2-methyl)allyl evodiamine]
- lung cancer cell death (cell viability) (H1299 lung cancer cells): excellent effects

Compound: CN1c2ccc([N+](=O)[O-])cc2C(=O)N2CCc3c([nH]c4ccccc34)C21 (stereo not drawn) [EV303]
- lung cancer cell death (cell viability) (H1299 lung cancer cells): excellent effects

Compound: C#CCN1c2ccccc2C(=O)N2CCc3c([nH]c4ccccc34)C21 (stereo not drawn) [EV205, 14N-propagyl Evodiamine]
- lung cancer cell death (cell viability) (H1299 lung cancer cells): excellent effects

Compound: C#CCN1c2ccccc2C(=O)N2CCc3c([nH]c4c([N+](=O)[O-])cc([N+](=O)[O-])cc34)C21 (stereo not drawn) [EV506]
- melting point: 232 to 234 °C
- inhibition at 0.5 µM (lung cancer cell): > 50%

Compound: CN1c2ccccc2C(=O)N2CCc3c([nH]c4ccc([N+](=O)[O-])cc34)C21 (stereo not drawn) [EV401]
- lung cancer cell death (cell viability) (H1299 lung cancer cells): excellent effects

Compound: CN1c2ccccc2C(=O)N2CCc3c([nH]c4ccc(O)cc34)C21 (stereo not drawn) [EV408]
- lung cancer cell death (cell viability) (H1299 lung cancer cells): excellent effects
- expression of Hsp70 protein and Hsp70/Hsp90 client proteins (Akt, Src, and MEK) [1]: clear reduction
- formation of colonies under anchorage-dependent (adherent) conditions [2]: significantly inhibited
- growth-inhibitory effect [3]: excellent growth-inhibitory effects

Compound: COc1cccc2c1C(=O)N1CCc3c([nH]c4ccccc34)C1N2C (stereo not drawn) [EV309]
- lung cancer cell death (cell viability) (H1299 lung cancer cells): excellent effects

Compound: C=CCN1c2ccccc2C(=O)N2CCc3c([nH]c4ccccc34)C21 (stereo not drawn) [EV206, 14N-Allyl Evodiamine]
- lung cancer cell death (cell viability) (H1299 lung cancer cells): excellent effects
- expression of Hsp70 protein and Hsp70/Hsp90 client proteins (Akt, Src, and MEK) [1]: clear reduction
- formation of colonies under anchorage-dependent (adherent) conditions [2]: significantly inhibited
- growth-inhibitory effect [3]: excellent growth-inhibitory effects

Compound: CN1c2ccc(I)cc2C(=O)N2CCc3c([nH]c4ccccc34)C21 (stereo not drawn) [EV310]
- lung cancer cell death (cell viability) (H1299 lung cancer cells): excellent effects

Compound: COc1ccc2[nH]c3c(c2c1)CCN1C(=O)c2ccccc2N(C)C31 (stereo not drawn) [EV403]
- lung cancer cell death (cell viability) (H1299 lung cancer cells): excellent effects

Compound: C#CCN1c2ccccc2C(=O)N2CCc3c([nH]c4ccc(O)cc34)C21 (stereo not drawn) [EV508]
- cancer cell survival inhibitory activity (cancer cell): as excellent as EV507
- anchorage-independent colony formation (lung cancer cells): effectively inhibited
- melting point: 230 to 232 °C
- inhibition at 0.5 µM (lung cancer cell): > 65%

Compound: CN1c2ccccc2C(=O)N2CCc3c([nH]c4c([N+](=O)[O-])cc([N+](=O)[O-])cc34)C21 (stereo not drawn) [EV402]
- lung cancer cell death (cell viability) (H1299 lung cancer cells): excellent effects

Compound: CN1c2cccc(Cl)c2C(=O)N2CCc3c([nH]c4ccccc34)C21 (stereo not drawn) [EV308]
- lung cancer cell death (cell viability) (H1299 lung cancer cells): excellent effects

Compound: CC#CCN1c2ccccc2C(=O)N2CCc3c([nH]c4ccccc34)C21 (stereo not drawn) [EV219]
- lung cancer cell death (cell viability) (H1299 lung cancer cells): excellent effects

Compound: C=C(C)CN1c2ccccc2C(=O)N2CCc3c([nH]c4c([N+](=O)[O-])cc([N+](=O)[O-])cc34)C21 (stereo not drawn) [EV504]
- cancer cell survival inhibitory activity (cancer cell): as excellent as EV507
- melting point: 175 to 177 °C

Compound: CN1c2ccc(Br)cc2C(=O)N2CCc3c([nH]c4ccccc34)C21 (stereo not drawn) [EV306]
- lung cancer cell death (cell viability) (H1299 lung cancer cells): excellent effects

Compound: CCCOc1ccc2[nH]c3c(c2c1)CCN1C(=O)c2ccccc2N(C)C31 (stereo not drawn) [EV413]
- lung cancer cell death (cell viability) (H1299 lung cancer cells): excellent effects

Compound: C=CCN1c2ccccc2C(=O)N2CCc3c([nH]c4c([N+](=O)[O-])cc([N+](=O)[O-])cc34)C21 (stereo not drawn) [EV503]
- melting point: 229 to 231 °C
- inhibition at 0.5 µM (lung cancer cell): > 50%

Compound: CN1c2ccc(Cl)cc2C(=O)N2CCc3c([nH]c4ccccc34)C21 (stereo not drawn) [EV304]
- lung cancer cell death (cell viability) (H1299 lung cancer cells): excellent effects
